The record followed here is patent US20190282498A1, “FREEZE-DRIED PROBIOTIC FOODSTUFFS” (IMAGILIN TECHNOLOGY, LLC, priority 2018, published 2019).

This assay concerns E. coli. Description: Survival of E. coli with amoxicillin (comparison, data not shown). The assay is classed as cell-based. The conditions noted are these: 500 μg/ml of amoxicillin. On the procedure:
In order to determine whether freeze-drying interfered with this antibiotic compatibility, Pediococcus probiotic freeze-dried products were exposed amoxicillin at 10 μg/ml, 50 μg/ml, 100 μg/ml, and 500 μg/ml, and incubated at 45° C. for […] to see if any survival of Pediococcus acidilactici NRRL B-50517. […] For comparison, E. coli had 0% survival at 500 μg/ml of amoxicillin (data not shown).

As to `CC1(C)S[C@@H]2[C@H](NC(=O)[C@H](N)c3ccc(O)cc3)C(=O)N2[C@H]1C(=O)O` [amoxicillin], the “survival of E. coli” value amounted to 0%.
